Key:
[1] = biological target: Voltage-dependent T-type calcium channel subunit alpha-1H (Homo sapiens) (UniProt O95180); assay: Ability to block calcium channel T type 3.2v expressed in Xenopus oocytes at 100 uM by two-microelectrode voltage-clamp method; format: functional, cell-based; conditions: Oocyte
[2] = biological target: T1, Voltage-dependent T-type calcium channel subunit alpha-1G (Homo sapiens, UniProt O43497); assay: Ability to block calcium channel T type 3.1v expressed in HEK293 cells at 10 uM by whole cell patch clamp method; format: functional, cell-based
[3] = biological target: T1, Voltage-dependent T-type calcium channel subunit alpha-1G; assay: Ability to block calcium channel T type 3.1v expressed in HEK293 cells by whole cell patch clamp method; format: functional, cell-based
[4] = biological target: Voltage-dependent N-type calcium channel subunit alpha-1B (Homo sapiens) (UniProt Q00975); assay: Ability to block calcium channel N type 2.2v expressed in HEK293 cells at 10 uM by whole cell patch clamp method; format: functional, cell-based
Homo sapiens = species: Homo sapiens; assay: Selectivity for calcium channel N type 2.2v over calcium channel T type 3.1v; format: functional

Chain of Voltage-dependent T-type calcium channel subunit alpha-1H (Homo sapiens) (O95180 whole entry): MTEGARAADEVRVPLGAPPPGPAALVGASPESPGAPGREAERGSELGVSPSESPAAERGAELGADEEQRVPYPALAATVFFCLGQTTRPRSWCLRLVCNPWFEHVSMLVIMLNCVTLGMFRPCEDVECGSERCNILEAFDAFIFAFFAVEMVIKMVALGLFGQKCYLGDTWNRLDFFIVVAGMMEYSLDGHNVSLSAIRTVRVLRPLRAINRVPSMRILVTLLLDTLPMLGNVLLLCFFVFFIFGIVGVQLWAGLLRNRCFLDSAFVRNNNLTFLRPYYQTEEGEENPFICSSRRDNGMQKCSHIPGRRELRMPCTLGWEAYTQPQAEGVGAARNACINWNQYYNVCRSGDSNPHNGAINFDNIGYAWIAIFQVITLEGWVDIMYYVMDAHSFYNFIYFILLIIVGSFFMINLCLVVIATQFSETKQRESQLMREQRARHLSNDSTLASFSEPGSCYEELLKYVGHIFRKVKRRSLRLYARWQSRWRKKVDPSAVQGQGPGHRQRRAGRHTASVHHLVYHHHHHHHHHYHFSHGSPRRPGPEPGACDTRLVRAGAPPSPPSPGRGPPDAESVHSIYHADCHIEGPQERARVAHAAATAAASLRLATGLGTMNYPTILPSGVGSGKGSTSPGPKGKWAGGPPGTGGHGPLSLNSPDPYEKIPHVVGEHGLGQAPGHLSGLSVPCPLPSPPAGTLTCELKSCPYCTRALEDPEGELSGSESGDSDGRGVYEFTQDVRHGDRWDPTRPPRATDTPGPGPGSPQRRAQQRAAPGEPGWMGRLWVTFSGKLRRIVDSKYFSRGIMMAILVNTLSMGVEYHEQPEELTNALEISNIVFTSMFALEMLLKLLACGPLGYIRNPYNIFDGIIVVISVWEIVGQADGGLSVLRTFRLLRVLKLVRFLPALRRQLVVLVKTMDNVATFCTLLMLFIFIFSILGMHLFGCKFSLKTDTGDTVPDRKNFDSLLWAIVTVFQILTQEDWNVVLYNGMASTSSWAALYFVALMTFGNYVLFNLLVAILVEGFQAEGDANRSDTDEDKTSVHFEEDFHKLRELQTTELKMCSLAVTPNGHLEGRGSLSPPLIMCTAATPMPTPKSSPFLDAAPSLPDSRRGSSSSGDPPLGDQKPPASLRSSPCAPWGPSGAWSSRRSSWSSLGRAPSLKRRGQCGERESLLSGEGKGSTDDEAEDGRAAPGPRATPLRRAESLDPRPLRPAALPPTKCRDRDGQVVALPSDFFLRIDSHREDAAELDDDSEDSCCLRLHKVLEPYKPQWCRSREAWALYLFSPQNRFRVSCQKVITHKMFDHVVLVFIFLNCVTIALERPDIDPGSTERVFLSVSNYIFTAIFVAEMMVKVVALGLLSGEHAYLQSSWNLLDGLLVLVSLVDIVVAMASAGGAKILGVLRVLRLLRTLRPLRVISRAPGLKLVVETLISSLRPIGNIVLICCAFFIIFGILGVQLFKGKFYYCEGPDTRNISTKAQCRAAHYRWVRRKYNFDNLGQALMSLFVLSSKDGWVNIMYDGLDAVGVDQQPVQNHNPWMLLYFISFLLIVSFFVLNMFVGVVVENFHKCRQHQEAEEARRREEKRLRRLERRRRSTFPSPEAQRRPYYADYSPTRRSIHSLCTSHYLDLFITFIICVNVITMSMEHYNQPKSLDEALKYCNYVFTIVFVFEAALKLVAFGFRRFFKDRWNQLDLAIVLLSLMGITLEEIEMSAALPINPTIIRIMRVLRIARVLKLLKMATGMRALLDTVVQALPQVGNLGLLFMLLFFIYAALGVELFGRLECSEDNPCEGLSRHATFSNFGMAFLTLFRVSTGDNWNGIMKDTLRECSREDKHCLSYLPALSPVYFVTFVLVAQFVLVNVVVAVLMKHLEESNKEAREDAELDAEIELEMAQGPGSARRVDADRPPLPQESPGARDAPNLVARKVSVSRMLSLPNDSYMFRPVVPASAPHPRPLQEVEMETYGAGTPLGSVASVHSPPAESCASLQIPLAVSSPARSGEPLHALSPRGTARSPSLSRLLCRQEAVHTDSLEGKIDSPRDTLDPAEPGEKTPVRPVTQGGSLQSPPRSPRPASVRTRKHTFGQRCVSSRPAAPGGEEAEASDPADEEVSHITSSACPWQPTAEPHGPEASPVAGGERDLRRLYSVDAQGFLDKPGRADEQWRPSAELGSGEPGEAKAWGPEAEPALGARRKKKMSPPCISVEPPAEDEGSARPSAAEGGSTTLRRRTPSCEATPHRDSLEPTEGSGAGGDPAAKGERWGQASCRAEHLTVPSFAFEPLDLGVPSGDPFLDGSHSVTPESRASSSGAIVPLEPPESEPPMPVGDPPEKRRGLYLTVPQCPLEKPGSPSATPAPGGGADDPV
T1 sequence (O43497 whole entry): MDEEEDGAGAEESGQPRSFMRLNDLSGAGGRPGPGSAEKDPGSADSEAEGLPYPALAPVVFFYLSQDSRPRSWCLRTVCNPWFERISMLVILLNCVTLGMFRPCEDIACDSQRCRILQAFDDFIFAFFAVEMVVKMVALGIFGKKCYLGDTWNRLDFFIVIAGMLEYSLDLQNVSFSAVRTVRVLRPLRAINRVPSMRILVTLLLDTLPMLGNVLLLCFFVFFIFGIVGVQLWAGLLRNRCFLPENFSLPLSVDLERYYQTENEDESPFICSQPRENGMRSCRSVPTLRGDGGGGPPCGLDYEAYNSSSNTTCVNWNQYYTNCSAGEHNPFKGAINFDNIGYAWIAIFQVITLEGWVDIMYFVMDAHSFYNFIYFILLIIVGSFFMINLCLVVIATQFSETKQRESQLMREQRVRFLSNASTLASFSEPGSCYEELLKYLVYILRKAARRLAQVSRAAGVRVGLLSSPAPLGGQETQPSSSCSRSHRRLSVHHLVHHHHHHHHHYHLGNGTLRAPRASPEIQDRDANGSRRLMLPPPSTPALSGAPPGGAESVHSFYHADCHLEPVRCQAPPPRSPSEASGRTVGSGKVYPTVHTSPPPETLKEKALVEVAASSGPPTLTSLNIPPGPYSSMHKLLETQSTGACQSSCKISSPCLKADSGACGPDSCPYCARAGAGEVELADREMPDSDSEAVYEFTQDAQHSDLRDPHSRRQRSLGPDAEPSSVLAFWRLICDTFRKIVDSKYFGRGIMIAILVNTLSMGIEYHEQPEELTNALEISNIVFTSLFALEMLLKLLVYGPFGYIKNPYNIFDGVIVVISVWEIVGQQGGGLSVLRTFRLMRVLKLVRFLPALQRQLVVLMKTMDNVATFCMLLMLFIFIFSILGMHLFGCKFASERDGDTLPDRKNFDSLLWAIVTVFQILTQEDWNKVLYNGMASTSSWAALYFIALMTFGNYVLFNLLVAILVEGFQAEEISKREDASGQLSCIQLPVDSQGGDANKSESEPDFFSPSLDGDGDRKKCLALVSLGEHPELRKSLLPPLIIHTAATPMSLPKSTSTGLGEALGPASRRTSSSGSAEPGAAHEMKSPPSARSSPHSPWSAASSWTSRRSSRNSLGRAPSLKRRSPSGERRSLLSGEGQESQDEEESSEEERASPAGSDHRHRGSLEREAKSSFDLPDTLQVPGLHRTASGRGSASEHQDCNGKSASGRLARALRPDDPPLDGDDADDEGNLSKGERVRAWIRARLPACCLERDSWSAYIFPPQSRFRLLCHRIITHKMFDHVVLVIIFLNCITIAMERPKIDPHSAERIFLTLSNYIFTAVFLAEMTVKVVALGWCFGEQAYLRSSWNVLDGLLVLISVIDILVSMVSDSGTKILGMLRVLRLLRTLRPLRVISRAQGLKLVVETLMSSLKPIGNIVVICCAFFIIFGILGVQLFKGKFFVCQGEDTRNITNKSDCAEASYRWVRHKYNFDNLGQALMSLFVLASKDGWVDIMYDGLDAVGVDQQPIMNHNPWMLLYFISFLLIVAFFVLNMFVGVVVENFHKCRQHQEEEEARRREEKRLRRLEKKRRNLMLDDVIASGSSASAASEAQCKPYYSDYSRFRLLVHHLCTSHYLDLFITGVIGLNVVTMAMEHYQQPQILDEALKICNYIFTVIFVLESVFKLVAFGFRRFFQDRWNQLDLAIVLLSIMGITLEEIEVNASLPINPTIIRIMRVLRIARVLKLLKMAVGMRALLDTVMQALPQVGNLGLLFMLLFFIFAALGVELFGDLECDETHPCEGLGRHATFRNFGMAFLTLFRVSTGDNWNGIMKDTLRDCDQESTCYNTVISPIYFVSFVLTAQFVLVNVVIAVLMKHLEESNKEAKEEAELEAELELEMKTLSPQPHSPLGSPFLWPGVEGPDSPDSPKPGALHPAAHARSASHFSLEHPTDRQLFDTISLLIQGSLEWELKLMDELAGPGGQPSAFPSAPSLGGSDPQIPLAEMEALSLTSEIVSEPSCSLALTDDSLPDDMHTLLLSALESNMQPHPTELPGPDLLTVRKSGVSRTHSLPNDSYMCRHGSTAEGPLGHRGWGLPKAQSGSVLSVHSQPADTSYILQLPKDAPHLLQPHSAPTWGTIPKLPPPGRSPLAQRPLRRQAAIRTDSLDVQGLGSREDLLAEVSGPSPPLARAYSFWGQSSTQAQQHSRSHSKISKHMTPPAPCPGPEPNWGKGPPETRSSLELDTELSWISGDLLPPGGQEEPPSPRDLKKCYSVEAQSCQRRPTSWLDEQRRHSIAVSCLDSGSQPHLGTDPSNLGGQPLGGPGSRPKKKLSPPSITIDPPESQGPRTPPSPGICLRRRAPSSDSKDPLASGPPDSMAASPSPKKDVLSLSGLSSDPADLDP

| inhibition [1] | inhibition [2] | IC50 [3] | inhibition [4] | Compound | Ratio (Homo sapiens) |
| --- | --- | --- | --- | --- | --- |
| 35.6% | – | – | – | C[C@H](NC(=O)[C@@H]1COC(=O)[C@H](Cc2ccc(F)cc2)N1)c1ccccc1 | – |
| 12.3% | – | – | – | O=C1OC[C@H](C(=O)NCc2ccccc2)N[C@H]1Cc1ccc(F)cc1 (relative stereo) | – |
| 76% | 73.6% | 2180 nM | 9.4% | O=C(NC1CCCCC1)[C@@H]1COC(=O)[C@H](Cc2ccccc2)N1 (relative stereo) | 7.8 |
| 48.4% | 64% | 1610 nM | 10.9% | C[C@H](NC(=O)[C@@H]1COC(=O)[C@H](Cc2ccc(Cl)cc2)N1)c1ccccc1 | 5.9 |
| 74.8% | 86.2% | 1130 nM | 7.6% | O=C(NCc1ccccc1)[C@@H]1COC(=O)[C@H](Cc2ccc([N+](=O)[O-])cc2)N1 (relative stereo) | 11.3 |
| 27.6% | – | – | – | C[C@H](NC(=O)[C@H]1COC(=O)[C@H](Cc2ccc(O)cc2)N1)c1ccccc1 | – |
| 82% | 78.8% | 990 nM | 25.3% | CC(C)[C@@H]1N[C@H](C(=O)NCc2ccccc2)COC1=O (relative stereo) | 3.1 |
| 19.1% | – | – | – | O=C1OC[C@H](C(=O)NCc2ccccc2)N[C@H]1Cc1ccc(Cl)cc1 (relative stereo) | – |
| 54.6% | 74% | 2040 nM | 2.5% | COc1ccc(C[C@@H]2N[C@H](C(=O)NCc3ccccc3)COC2=O)cc1 (relative stereo) | 29.6 |
| 6.5% | – | – | – | O=C1OC[C@H](C(=O)NCc2ccccc2)N[C@H]1Cc1ccc([N+](=O)[O-])cc1 (relative stereo) | – |
| – | 89.8% | – | 57.4% | COCC(=O)O[C@]1(CCN(C)CCCc2nc3ccccc3[nH]2)CCc2cc(F)ccc2[C@@H]1C(C)C | – |
| 70% | 63.4% | 1220 nM | 1.7% | CCC(C)[C@@H]1N[C@H](C(=O)NCc2ccccc2)COC1=O (stereo not given in full) | 37.3 |
| 60.8% | 80.2% | 2130 nM | 4% | C[C@H](NC(=O)[C@@H]1COC(=O)[C@H](Cc2ccc([N+](=O)[O-])cc2)N1)c1ccccc1 | 20.1 |
| 16.2% | – | – | – | COc1ccc(C[C@@H]2N[C@@H](C(=O)NCc3ccccc3)COC2=O)cc1 (relative stereo) | – |
| 30.3% | – | – | – | O=C1OC[C@H](C(=O)NC2CCCCC2)N[C@H]1Cc1ccccc1 (relative stereo) | – |
| 87% | 78.9% | 1010 nM | 4.8% | O=C(NCc1ccccc1)[C@@H]1COC(=O)[C@H](Cc2ccccc2)N1 (relative stereo) | 16.4 |
| 73.5% | 83.6% | 450 nM | 33.7% | O=C(NCc1ccccc1)[C@@H]1COC(=O)[C@H](Cc2ccc(Cl)cc2)N1 (relative stereo) | 2.5 |
| 73.3% | 79% | 1330 nM | 4% | C[C@H](NC(=O)[C@H]1COC(=O)[C@H](Cc2ccc(Cl)cc2)N1)c1ccccc1 | 19.8 |
| 42% | – | – | – | CC(C)(C)NC(=O)[C@H]1COC(=O)[C@H](Cc2ccccc2)N1 (relative stereo) | – |
| 25.2% | – | – | – | C[C@H](NC(=O)[C@H]1COC(=O)[C@H](Cc2ccc([N+](=O)[O-])cc2)N1)c1ccccc1 | – |
| 25% | – | – | – | Cc1ccc(S(=O)(=O)CNC(=O)[C@H]2COC(=O)[C@H](Cc3ccccc3)N2)cc1 (relative stereo) | – |
| 74% | 75.1% | 1860 nM | 15.4% | CSCC[C@@H]1N[C@H](C(=O)NCc2ccccc2)COC1=O (relative stereo) | 4.9 |
| 13% | – | – | – | Cc1ccc(S(=O)(=O)CNC(=O)[C@@H]2COC(=O)[C@H](Cc3ccccc3)N2)cc1 (relative stereo) | – |
| 70.9% | 77.6% | 2750 nM | 7.1% | O=C(NCc1ccccc1)[C@@H]1COC(=O)[C@H](Cc2ccc(F)cc2)N1 (relative stereo) | 10.9 |
| 45.8% | 77% | 1390 nM | 4.7% | C[C@H](NC(=O)[C@@H]1COC(=O)[C@H](Cc2ccc(O)cc2)N1)c1ccccc1 | 16.4 |
| 43% | – | – | – | CC(C)(C)NC(=O)[C@@H]1COC(=O)[C@H](Cc2ccccc2)N1 (relative stereo) | – |
| 5% | – | – | – | O=C1OC[C@H](C(=O)NCc2ccccc2)N[C@H]1Cc1ccccc1 (relative stereo) | – |
| 83.6% | 80.8% | 1480 nM | 11.3% | C[C@H](NC(=O)[C@H]1COC(=O)[C@H](Cc2ccc(F)cc2)N1)c1ccccc1 | 7.2 |

Reference: ChEMBL document CHEMBL1148674, “Morpholin-2-one derivatives as novel selective T-type Ca2+ channel blockers” (Bioorg Med Chem Lett, 2006)
